Measured values from patent US20250332173A1, “COMPOUNDS AND METHODS FOR MODULATING NUCLEIC ACID SPLICING” (REMIX THERAPEUTICS INC., priority 2021, published 2025).
Where two headings read alike, the source gives them in different places.

Tests used:
HTT mRNA = experiment: RT-qPCR splicing assay, HTT canonical junction (CJ) and alternative junction (AJ) mRNA; type: cell-based, human; conditions: Homo sapiens; for AC50: increase in HTT alternative junction (AJ) mRNA, read-out: HTT AJ AC50
Experimental: (§1) The expression of a target mRNA was measured by detecting the formation of an exon-exon junction in the canonical transcript (CJ). A compound mediated exon-inclusion event was detected by observing an increase in formation of a new junction with an alternative exon (AJ). Real-time qPCR assays were used to detect these splicing switches and interrogate the potency of various compounds towards different target genes. A high-throughput real time quantitative PCR (RT-qPCR) assay was developed to measure these two isoforms of the mRNA (CJ and AJ) for exemplary genes, such as HTT, SMN2, and MYB, together with a control housekeeping gene, GAPDH or GUSB or PPIA, used for normalization. Briefly, the A673 or K562 cell line was treated with various compounds described herein (e.g., compounds of Formula (I)). After treatment, the levels of the HTT, MYB, or SMN2 mRNA targets were determined from each sample of cell lysate by cDNA synthesis followed by qPCR.
(§2) • Cells-to-CT 1-step kit: ThermoFisher A25602, Cells-to-CT lysis reagent: ThermoFisher 4391851C, TaqMan™ Fast Virus 1-Step Master Mix: ThermoFisher 4444436 • GAPDH: VIC-PL, ThermoFisher 4326317E (Assay: Hs99999905_m1)—used for K562/suspension cell lines • GUSB: VIC-PL, ThermoFisher 4326320E (Assay: Hs99999908_m1)—used for K562/suspension cell lines • PPIA: VIC-PL, ThermoFisher 4326316E (Assay: Hs99999904_m1)—used for A673/adherent cell lines
(§3) The A673 cell line was cultured in DMEM with 10% FBS. Cells were diluted with full growth media and plated in a 96-well plate (15,000 cells in 100 ul media per well). The plate was incubated at 37° C. with 5% CO2 for 24 hours to allow cells to adhere. An 11-point 3-fold serial dilution of the compounds was made in DMSO then diluted in media in an intermediate plate. Compounds were transferred from the intermediate plate to the cell plate with the top dose at a final concentration of 10 uM in the well. Final DMSO concentration was kept at or below 0.25%. The cell plate was returned to the incubator at 37° C. with 5% CO2 for an additional 24 hours.
(§4) The K562 cell line was cultured in IMDM with 10% FBS. For K562, cells were diluted with full growth media and plated in either a 96-well plate (50,000 cells in 50 uL media per well) or a 384-well plate (8,000-40,000 cells in 45 uL media per well). An 11-point 3-fold serial dilution of the compounds were made in DMSO then diluted in media in an intermediate plate. Compound was transferred from the intermediate plate to the cell plate with the top dose at a final concentration of 10 uM in the well. Final DMSO concentration was kept at or below 0.25%. Final volume was 100 uL for 96-well plate and 50 uL for 384-well plate. The cell plate was then placed in an incubator at 37° C. with 5% CO2 for 24 hours.
(§5) The cells were then gently washed with 50 uL-100 uL cold PBS before proceeding to addition of lysis buffer. 30 uL-50 uL of room temperature lysis buffer with DNAse I (and optionally RNAsin) was added to each well. Cells were shaken/mixed thoroughly at room temperature for 5-10 minutes for lysis to take place and then 3 uL-5 uL of room temperature stop solution was added and wells were shaken/mixed again. After 2-5 minutes, the cell lysate plate was transferred to ice for RT-qPCR reaction setup. The lysates could also be frozen at −80° C. for later use.
(§6) In some cases, a direct lysis buffer was used. An appropriate volume of 3× lysis buffer (10 mM Tris, 150 mM NaCl, 1.5%-2.5% Igepal and 0.1-1 U/uL RNAsin, pH 7.4) was directly added to either K562 or A673 cells in media and mixed by pipetting 3 times. The plates were then incubated at room temperature with shaking/rocking for 20-50 minutes to allow for lysis to take place. After this time, the cell lysate plate was transferred to ice to set up for the RT-qPCR reactions. The lysates could also be frozen at −80° C. for later use.

MYB mRNA = experiment: RT-qPCR splicing assay, MYB canonical junction (CJ) and alternative junction (AJ) mRNA; type: cell-based, human; conditions: Homo sapiens; for AC50: increase in MYB alternative junction (AJ) mRNA, read-out: MYB AJ AC50
Experimental: as §1, §2, §3, §4, §5, §6

SMN2 mRNA = experiment: RT-qPCR splicing assay, SMN2 canonical junction (CJ) mRNA; type: cell-based, human; conditions: Homo sapiens
Experimental: as §1, §3, §4, §5, §6
(§7) To set up 10 uL RT-qPCR reactions, cell lysates were transferred to 384-well qPCR plates containing the master mix according to the table below. The plates were sealed, gently vortexed, and spun down before the run. The volumes were adjusted accordingly in some instances where the reaction was carried in 20 uL. The table below summarizes the components of the RT-qPCR reactions:
(§8) The RT-qPCR reaction was performed using a QuantStudio (ThermoFisher) under the following fast cycling conditions.

Target C = experiment: RT-qPCR splicing assay panel, Target C canonical junction (CJ) mRNA; type: cell-based, human; conditions: Homo sapiens
Experimental: as §1, §3, §4, §5, §6, §7, §8

[1] = tested on: K562 (human chronic myelogenous leukemia) cells; experiment: Cell Titer Glo 2.0 cell viability assay; type: cell-based; conditions: Homo sapiens, K562, 72 h, K562 cells, 72 hours, Cell Titer Glo 2.0; read-out: K562 GI50
[2] = decrease in HTT canonical junction (CJ) mRNA, RT-qPCR, read-out: HTT CJ IC50
[3] = Table 5 panel, canonical junction qPCR, compound concentration having 50% response in CJ decrease, read-out: HTT IC50 (decrease in CJ mRNA levels)
[4] = Table 5 panel, canonical junction qPCR, compound concentration having 50% response in CJ decrease, read-out: MYB IC50 (decrease in CJ mRNA levels)
[5] = decrease in MYB canonical junction (CJ) mRNA, RT-qPCR, read-out: MYB CJ IC50
[6] = Table 5 panel, canonical junction qPCR, compound concentration having 50% response in CJ decrease, read-out: SMN2 IC50 (decrease in CJ mRNA levels)
[7] = Table 5 panel, canonical junction qPCR, compound concentration having 50% response in CJ decrease, read-out: Target C IC50 (decrease in CJ mRNA levels)
[8] = canonical junction qPCR panel, Table 5, read-out: HTT (decrease in CJ mRNA levels, IC50)
[9] = canonical junction qPCR panel, Table 5, read-out: MYB (decrease in CJ mRNA levels, IC50)
[10] = canonical junction qPCR panel, Table 5, read-out: SMN2 (decrease in CJ mRNA levels, IC50)
[11] = canonical junction qPCR panel, Table 5, read-out: Target C (decrease in CJ mRNA levels, IC50)

Row | SMILES | IC50 (HTT mRNA; [2]) | AC50 (HTT mRNA; RT-qPCR) | IC50 (HTT mRNA; [3]) | IC50 (MYB mRNA; [4]) | IC50 (MYB mRNA; [5]) | AC50 (MYB mRNA; RT-qPCR) | IC50 (SMN2 mRNA; [6]) | IC50 (Target C; [7]) | IC50 (HTT mRNA; [8]) | IC50 (MYB mRNA; [9]) | IC50 (SMN2 mRNA; [10]) | IC50 (Target C; [11]) | GI50 [1]
1 | Cc1cn2cc(-c3ccc4c(=O)n(C5CCNC(C)C5)cnc4c3)cc(F)c2n1 (stereo not drawn) [Compound 323] | 0.1 to 1 µM | 0.1 to 1 µM | 0.1 to 1 µM | 0.1 to 1 µM | 0.1 to 1 µM | 0.1 to 1 µM | < 0.1 µM | 0.1 to 1 µM |  |  |  |  | 
2 | Cc1cn2nc(-c3ccc4c(c3)CCN(C3CCNC(C)C3)C4=O)cc(C)c2n1 (stereo not drawn) [Compound 327] | 1 to 10 µM | 1 to 10 µM | 1 to 10 µM | 1 to 10 µM | 1 to 10 µM | 1 to 10 µM | 1 to 10 µM | 1 to 10 µM |  |  |  |  | 
3 | Cc1cn2cc(-c3cc(F)c4c(=O)n(C5CCNC6(CC6)C5)ccc4c3)cc(F)c2n1 (stereo not drawn) [Compound 471, 2-{4-azaspiro[2.5]octan-7-yl}-8-fluoro-6-{8-fluoro-2-methylimidazo[1,2-a]pyridin-6-yl}isoquinolin-1-one] | > 10 µM | > 10 µM | > 10 µM | > 10 µM | > 10 µM | > 10 µM | 0.1 to 1 µM | > 10 µM |  |  |  |  | 
4 | CNCCn1ncc2cc(-c3cc(C)c4nc(C)cn4n3)ccc2c1=O [Compound 472] | 0.1 to 1 µM | 0.1 to 1 µM | 0.1 to 1 µM | 0.1 to 1 µM | 0.1 to 1 µM | 0.1 to 1 µM | < 0.1 µM | 0.1 to 1 µM |  |  |  |  | 
5 | Cc1cn2cc(-c3cc(F)c4c(=O)n([C@H]5CC[C@H](N(C)C)CC5)ccc4c3)cc(F)c2n1 [Compound 654] | < 0.1 µM | < 0.1 µM | < 0.1 µM | < 0.1 µM | < 0.1 µM | < 0.1 µM | < 0.1 µM | 0.1 to 1 µM |  |  |  |  | 
6 | Cc1cn2nc(-c3cc(F)c4c(=O)n(C56CCC(N)(CC5)C6)ccc4c3)cc(C)c2n1 [Compound 655] | 1 to 10 µM | 0.1 to 1 µM | 0.1 to 1 µM | < 0.1 µM | 0.1 to 1 µM | < 0.1 µM | < 0.1 µM | 1 to 10 µM |  |  |  |  | 
7 | Cc1cn2cc(-c3cc(F)c4c(=O)n([C@H]5CC[C@@H](N(C)C)CC5)ccc4c3)cc(F)c2n1 [Compound 656] | 0.1 to 1 µM | 0.1 to 1 µM | 0.1 to 1 µM | < 0.1 µM | < 0.1 µM | < 0.1 µM | < 0.1 µM | 0.1 to 1 µM |  |  |  |  | 
8 | Cn1cc2cc(-c3ccc4c(=O)n(C5CCNCC5)ccc4n3)c(O)c(C#N)c2n1 [Compound 1283] | 0.1 to 1 µM | 0.1 to 1 µM |  |  | 0.1 to 1 µM | 0.1 to 1 µM |  |  | 0.1 to 1 µM | 0.1 to 1 µM | < 0.1 µM | 1 to 10 µM | 
9 | Cc1cn2nc(-c3ccc4c(=O)n([C@@H]5CCNC6(CC6)C5)ncc4n3)cc(C)c2n1 [Compound 1298] | < 0.1 µM | < 0.1 µM |  |  | 0.1 to 1 µM | 0.1 to 1 µM |  |  | < 0.1 µM | 0.1 to 1 µM | < 0.1 µM | 0.1 to 1 µM | 
10 | Cc1c(O)c(-c2ncc3c(=O)n([C@@H]4CCNC(C)(C)C4)ccc3n2)cc2cn(C)nc12 [Compound 1435] | 1 to 10 µM | 1 to 10 µM |  |  | 0.1 to 1 µM | 0.1 to 1 µM |  |  | 1 to 10 µM | 0.1 to 1 µM | < 0.1 µM | > 10 µM | 0.1 to 1 µM
11 | Cc1c(O)c(-c2ncc3c(=O)n([C@H]4C[C@H]5COC[C@@H](C4)N5)ccc3n2)cc2cn(C)nc12 [Compound 1472] | 1 to 10 µM | 1 to 10 µM |  |  | 0.1 to 1 µM | 0.1 to 1 µM |  |  | 1 to 10 µM | 0.1 to 1 µM | 0.1 to 1 µM | 1 to 10 µM | 1 to 10 µM
12 | Cc1c(O)c(-c2ncc3c(=O)n([C@H]4CC[C@@H](N)C4)ccc3n2)cc2cn(C)nc12 [Compound 1473, 6-[(1S,3R)-3-aminocyclopentyl]-2-(6-hydroxy-2,7-dimethyl-indazol-5-yl)pyrido[4,3-d]pyrimidin-5-one] | > 10 µM | 1 to 10 µM |  |  | 0.1 to 1 µM | 0.1 to 1 µM |  |  | 1 to 10 µM | 0.1 to 1 µM | < 0.1 µM | 1 to 10 µM | 0.1 to 1 µM
